Structures are written as SMILES.

This is an account of results in patent US20250243196A1, “CITRON KINASE INHIBITORS” (The Cleveland Clinic Foundation, priority 2021, published 2025).

The test deals with SAPK3(h) (Homo sapiens (Human), UniProt P53778). The experiment in a line: KinaseProfiler panel. Type of test: biochemical. The arrangement: dose or concentration left out as unconfirmed. Conditions: activity remaining.
Chain of SAPK3(h) (P53778 whole entry): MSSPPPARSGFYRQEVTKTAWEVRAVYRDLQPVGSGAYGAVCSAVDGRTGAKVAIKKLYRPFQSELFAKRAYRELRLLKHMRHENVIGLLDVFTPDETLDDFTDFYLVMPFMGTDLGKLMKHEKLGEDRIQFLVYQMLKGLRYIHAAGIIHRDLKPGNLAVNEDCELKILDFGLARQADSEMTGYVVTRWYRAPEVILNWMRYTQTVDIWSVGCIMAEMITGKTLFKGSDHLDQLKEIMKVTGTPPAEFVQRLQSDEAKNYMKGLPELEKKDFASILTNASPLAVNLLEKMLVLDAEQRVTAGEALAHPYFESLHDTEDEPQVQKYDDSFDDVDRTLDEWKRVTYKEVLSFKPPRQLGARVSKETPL

For `Cc1cc2c(-c3ccc(NC(=O)[C@H](N)CC(C)(C)C)cc3C)ccnc2[nH]1` [Compound F-90, (2R)-2-Amino-4,4-dimethyl-N-[3-methyl-4-(2-methyl-1H-pyrrolo[2,3-b]pyridin-4-yl)phenyl]pentanamide], the “% Activity” value is recorded as 113%.
